Columns and labels:
carrageenin pleurisy = test: Carrageenin pleurisy model; type: in vivo, Female S.D. rats; conditions: dexamethasone acetate 150 μg/kg s.c.; six hours
Protocol: The effect of the keratan sulfate oligosaccharide was examined with the carrageenin pleurisy model of rats which is generally used for evaluation of anti-inflammatory agents.
Female S.D. rats (n=37) of about 150 to 170 g weight were used for the test. The λ-carrageenin (Sigma) was dissolved in saline to a concentration of 2%, and the solution was filtered with a 0.8 μm filter. The carrageenin solution obtained was intrathoracically administered at 100 μl/animal to prepare the pleurisy model.
To the pleurisy model of rats (n=19) described above, the keratan sulfate tetrasaccharide (I) dissolved in PBS was subcutaneously (s.c.) administered in 20 mg/kg or 10 mg/kg dose. And as the positive control, steroid (dexamethasone acetate; Banyu Pharmaceutical) was subcutaneously administered to the eight rats described above in 150 μg/kg which was the clinical dose. As the negative control, PBS was subcutaneously administered to the 10 rats. Each administration was carried out immediately after the administration of carrageenin.
Each rat was anatomized six hours after the administration of λ-carrageenin. The thoracic cavity of the rats was opened to collect the retained pleural fluid using a 2-ml syringe with probe. After that, inside of the thoracic cavity was washed with 1 ml of saline, and the washing solution was recovered. The volume of the pleural fluid recovered with the syringe was determined, and the number of leukocyte (cell number) in the pleural fluid was determined by an automatic cytometer. The results are be shown in FIG. 8 and FIG. 9, respectively. In the figures, * and ** represent that they have the significant difference with p<0.05 and p<0.01, respectively (wherein "p" means a level of significance by the Duncan test).

[1] = tested on: foot edema reversed passive Arthus reaction; test: Foot edema reversed passive Arthus reaction; type: in vivo, Male Crj:SD rats
Protocol: The effect of the keratan sulfate oligosaccharide was examined on the foot edema reversed passive Arthus reaction of rats, which is a type III allergic inflammation model. That is, the rabbit antiovalbumin serum was subcutaneously administered to the planta of the rats which were previously subjected to the administration of the test substances, furthermore ovalbumin was administered by injection into the caudal vein thereof to induce inflammation (edema), and the inhibitory effect on edema of the test substances was examined.
Male Crj:SD rats of five weeks old were subjected to a fast of about 17 hours after a week period of quarantine, and, before inducing inflammation, subjected to the administration of the purified keratan sulfate tetrasaccharide (I) which was prepared in Example 1, indomethacin (Sigma; Lot No. 19F0018), or dexamethasone (Banyu Pharmaceutical); Decadron injection; Lot No. 8D307P) as the test substances, or saline (Otsuka Pharmaceutical; Lot No. K3H72) as the negative control. The keratan sulfate tetrasaccharide (I) and dexamethasone were dissolved in saline, respectively, and the indomethacin was dissolved in 0.5% sodium carboxymethylcellulose (CMC-Na; Wako Pure Chemical Industries; Lot No. PTN1418) in use. The volume of dose was 0.5 ml per 100 g weight in each test. Concerning the route of administration, the keratan sulfate tetrasaccharide (I), saline, and dexamethasone were administered from the caudal vein, and the indomethacin was orally administered. And the substances except for indomethacin were administered by the blind method.
The dose and administration schedule of each test substance were as follows. Each group consisted of five animals.
The rabbit antiovalbumin serum was subcutaneously administered to each of the rats described above on the planta thereof, and ovalbumin was further administered by injection into the caudal vein to induce inflammation foot edema. The antiserum used was prepared as follows. That is, to the regions of back of rabbits, 1 ml of the equivalently mixed solution (emulsion) of the saline containing 2% ovalbumin (10 mg per one animal, Egg Albumin 5×Cryst, Lot No. P93601; Seikagaku Corporation) and the Freund's complete adjuvant (FCA) was intradermally injected once a week three times totally to subject themselves to sensitization. About 34 days after the last sensitization, the blood was drawn to obtain the antiserum. The antibody titer of the antiserum obtained was determined by the double layer method. Namely, the determination was performed using the white precipitation reaction of the antiserum diluted with saline and the saline containing 0.1% ovalbumin (1 mg/ml) as the indicator. As a result, the antibody titer of the antiserum obtained was x2^7.
After the period which is designed for each group, each 0.1 ml of the sixfold diluted antiserum was subcutaneously administered to the planta of left rear foot of the rats which were subjected to the administration of each test substance. Then, the saline containing 0.5% ovalbumin (25 mg/5 ml/kg) was administered into the caudal vein to induce inflammation. The volume of the treated feet in each group was determined before inducing inflammation, and one, two, three and four hours after inducing inflammation by a foot volume determining device (TK-101, Unicom) to yield the foot edematization rate from the difference from the value before the induction, and the edematization inhibitory rate of the test substance administered group to the control group was calculated. In each edematization rate obtained, the difference between the averages was tested by the minimum significant difference test. The foot edematization rate and the edematization inhibitory rate of each administered group are shown in Table 9, and the foot edematization rate of the administered groups which was subjected to the administration of the agent at five minutes and at three hours before inducing inflammation are shown in FIG. 6 and FIG. 7, respectively. […]

## CC(=O)OCC(=O)[C@@]1(O)[C@H](C)C[C@H]2[C@@H]3CCC4=CC(=O)C=C[C@]4(C)[C@@]3(F)[C@@H](O)C[C@@]21C [Dexamethasone Acetate, dexamethasone acetate, reference compound]
Carrageenin pleurisy
  number of leukocyte in pleural fluid (FIG. 9): significantly less than that in the control group
  quantity of pleural fluid (FIG. 8): significantly less than that in the negative control group

## C[C@@H]1C[C@H]2[C@@H]3CCC4=CC(=O)C=C[C@]4(C)[C@@]3(F)[C@@H](O)C[C@]2(C)[C@@]1(O)C(=O)CO [Dexamethasone, dexamethasone, reference compound]
[1]; 1 Hour Later, dexamethasone 1 mg/kg i.v. at 3 hours before inducing edema
  Inhibitory Rate: 47.8%
[1]; 1 Hour Later, dexamethasone 1 mg/kg i.v. at 3 hours before inducing edema, P < 0.01, control 40.9
  Edematization Rate: 21.3 ± 3.1%
[1]; 2 Hours Later, dexamethasone 1 mg/kg i.v. at 3 hours before inducing edema
  Inhibitory Rate: 31.7%
[1]; 2 Hours Later, dexamethasone 1 mg/kg i.v. at 3 hours before inducing edema, P < 0.01, control 46.3
  Edematization Rate: 31.6 ± 2.2%
[1]; 3 Hours Later, dexamethasone 1 mg/kg i.v. at 3 hours before inducing edema
  Inhibitory Rate: 39.9%
[1]; 3 Hours Later, dexamethasone 1 mg/kg i.v. at 3 hours before inducing edema, P < 0.01, control 51.2
  Edematization Rate: 30.7 ± 1.5%
[1]; 4 Hours Later, dexamethasone 1 mg/kg i.v. at 3 hours before inducing edema
  Inhibitory Rate: 58.1%
[1]; 4 Hours Later, dexamethasone 1 mg/kg i.v. at 3 hours before inducing edema, P < 0.01, control 44.9
  Edematization Rate: 18.8%
[1]; dexamethasone 1 mg/kg, three hours before
  foot edematization rate, significance (result in words): significantly low values were observed at any determination point between one and four hours after inducing inflammation

## COc1ccc2c(c1)c(CC(=O)O)c(C)n2C(=O)c1ccc(Cl)cc1 [Indomethacin, indomethacin, reference compound]
[1]; 1 Hour Later, 5 mg/kg oral at 30 minutes before inducing edema
  Inhibitory Rate: 13.5%
[1]; 1 Hour Later, 5 mg/kg oral at 30 minutes before inducing edema, control 40.9
  Edematization Rate: 35.4 ± 1.6%
[1]; 2 Hours Later, 5 mg/kg oral at 30 minutes before inducing edema
  Inhibitory Rate: 17.5%
[1]; 2 Hours Later, 5 mg/kg oral at 30 minutes before inducing edema, P < 0.05, control 46.3
  Edematization Rate: 38.2 ± 2.9%
[1]; 3 Hours Later, 5 mg/kg oral at 30 minutes before inducing edema
  Inhibitory Rate: 9.0%
[1]; 3 Hours Later, 5 mg/kg oral at 30 minutes before inducing edema, control 51.2
  Edematization Rate: 46.4 ± 2.8%
[1]; 4 Hours Later, 5 mg/kg oral at 30 minutes before inducing edema
  Inhibitory Rate: 13.8%
[1]; 4 Hours Later, 5 mg/kg oral at 30 minutes before inducing edema, P < 0.05, control 44.9
  Edematization Rate: 38.7 ± 3.1%
[1]; indomethacin 5 mg/kg oral, 30 minutes before
  foot edematization rate, significance (result in words): significantly low values were observed after two hours and after four hours

Source: patent publication US5939403A, “Keratan sulfate oligosaccharide fraction and pharmaceutical containing the same” (Seikagaku Corporation, priority 1994, dated 1999)
